# Reference: patent US8802726B2, “Use of nitrooxyderivative of drug for the treatment of muscular dystrophies” (Nicox S.A., priority 2006, dated 2014)
# Marks after values point to notes of the source that are not given here.
# Experiments:
# [1] = system: α-sarcoglycan (SG)-null C57BL/6 mice; experiment: Histology of diaphragm and tibialis anterior (inflammatory infiltrates, necrotic fibres), muscular dystrophy model; format: in vivo; settings: for Overall effect on histological, functional and biochemical alterations (in words): α-SG-null mice, 20 to 80 days, summary of tables 1 and 2
# Description: (§1) Muscular Dystrophy Model (α-Sarcoglycan-Deficient Mice)
# (§2) • 2-acetyloxy benzoic acid 3-(nitrooxymethyl)benzoate of formula (Ib); • pravastatin 4-(nitrooxy)butyl ester which of formula (XXXVb); • 2-fluoro-alfa-methyl-4[1,1′-biphenyl]4-acetic acid 4-nitrooxybutyl ester of formula (IIIb); • prednisolone as reference corticosteroid drug. […] At indicated time-points (ranging from 20 to 80 days) skeletal muscle function was tested by the free wheel test. 24 hours later animals were sacrificed, tissue isolated and histological characteristics analysed. Infiltrates were assessed after staining with the Azan Mallory technique; Necrotic fibres were measured in hematoxilin-stained sections; creatin kinase was measured using a commercially available kit on blood samples obtained 24 hours prior to the wheel test. […] Free Wheel Running: Voluntary wheel running was used as the exercise paradigm to avoid any physiological changes that may occur due to the stress of forced treadmill running. Mice were housed singly for a 24 hour period in a polycarbonate running wheel equipped with a magnetic counter, the output of which was sent to a speedometer, allowing quantification of the number of revolutions per day. Creatine Kinase Activity Measurements: quantitative and kinetic determination of creatine kinase activity in serum of control and drug treated-animals was measured using creatine kinase reagent (Sigma), according to the manufacturer's instructions. Blood was collected from tail of 2-7 months-old mice and serum obtained after centrifugation at 13.000 rpm for 10 minutes was stored at −80° C. before measurements. Histology: Diaphragm and tibialis anterior of untreated and drug-treated mice were isolated and included in Killik frozen section medium, quickly frozen and cut into 8-μm thick sections with the muscle fibres oriented transversely using a cryostat. Sections were stained with either Hematoxylin & Eosin or Azan Mallory, to evaluate the number of inflammatory infiltrates and necrotic fibres ([…] for tissue).
# [2] = system: α-sarcoglycan (SG)-null C57BL/6 mice; experiment: Free wheel running test (voluntary wheel running), muscular dystrophy model; format: in vivo; settings: daily in the diet
# Description: as §1, §2
# [3] = system: α-sarcoglycan (SG)-null C57BL/6 mice; experiment: Creatine kinase activity measurements in serum, muscular dystrophy model; format: in vivo; settings: daily in the diet, Ib 100, XXXVb 12, IIIb 30, prednisolone 3 mg/kg
# Description: as §1, §2
# [4] = system: α-SG-null mice; experiment: In vivo functional test: resistance to fatigue (exhaustion) by treadmill; settings: for Extent of the benefit (%) on exhaustion time, treated vs untreated mice: in the diet
# Description: The effectiveness of naproxcinod, isosorbide dinitrate (ISD) alone and in combination with ibuprofen, molsidomine and prednisolone were evaluated using a test of functional recovery in a mouse model of muscular dystrophy (α-SG-null mice). The experiments to assess the functional recovery in α-SG-null mice were performed according to the following experimental protocol. All experiments and functional evaluations were performed by the same operator in the same laboratory.
# α-SG-null mice were housed in a pathogen-free facility, treated in accordance with the European Community Guidelines and with the approval of the Institutional Ethical Committee. Mice were given the following treatments: 3 mg/kg of molsidomine, 30 mg/kg of naproxcinod, 30 mg/kg of ISD alone and in combination with 50 mg/kg of ibuprofen, or 2 mg/kg of prednisolone incorporated in the diet. Control groups received the same diet without any drugs. Standard diet and diets containing the drugs were prepared based on the daily food intake of 3 g. Mice were treated starting at 1 month of age.
# Analyses were carried out using a six-lane motorized treadmill (Exeter 3/6 treadmill, Columbus Instruments, OH, USA) supplied with shocker plates. The initial trials were performed at low intensity and for a short duration of time to get mice accustomed to the exercise; the treadmill was then run without inclination at 5 m/min for 5 min, after which the speed was increased 1 m/min every 3 min until a speed of 10 m/min was reached. The test was stopped when the mouse remained on the shocker for 20 sec without attempting to reengage the treadmill.
# The extent of benefit (%) is expressed as the percent of the improvement of treated mice (diet containing the drug) compared to untreated mice (standard diet) on the exhaustion time.
# [5] = 80 days of treatment, daily in the diet, Ib 100 mg/kg, XXXVb 12 mg/kg, IIIb 30 mg/kg, prednisolone 3 mg/kg
# [6] = 80 days of treatment, daily in the diet, Ib 100 mg/kg, XXXVb 12 mg/kg, IIIb 30 mg/kg, prednisolone 3 mg/kg, Azan Mallory staining
# [7] = 20 days of treatment, Ib 100, XXXVb 12, IIIb 30, prednisolone 3 mg/kg
# [8] = 40 days of treatment, Ib 100, XXXVb 12 mg/kg
# [9] = 60 days of treatment, Ib 100, XXXVb 12 mg/kg
Structure (SMILES),"N° of necrotic Fibres/section [1, 5]","N° of inflammatory Infiltrates/section [1, 6]","Overall effect on histological, functional and biochemical alterations (in words) ([1]; daily in the diet)","Free wheel test [2, 7]","Free wheel test [2, 8]","Free wheel test [2, 9]","Free wheel test ([2]; 80 days of treatment, XXXVb 12 mg/kg)",CK plasma level ([3]; 20 days of treatment),CK plasma level ([3]; 40 days of treatment),CK plasma level ([3]; 60 days of treatment),CK plasma level ([3]; 80 days of treatment),"N° of inflammatory Infiltrates/section ([1]; mouse, in vivo)","N° of necrotic Fibres/section ([1]; mouse, in vivo)","Extent of the benefit (%) on exhaustion time, treated vs untreated mice ([4]; 6 months of treatment, prednisolone 2 mg/kg)","Extent of the benefit (%) on exhaustion time, treated vs untreated mice ([4]; 12 months of treatment, prednisolone 2 mg/kg)","Extent of the benefit (%) on exhaustion time, treated vs untreated mice ([4]; 8 months of treatment, molsidomine 3 mg/kg, ISD 30 mg/kg, ibuprofen 50 mg/kg)","Extent of the benefit (%) on exhaustion time, treated vs untreated mice ([4]; 4 months of treatment, naproxcinod 30 mg/kg, ISD 30 mg/kg, ibuprofen 50 mg/kg)","Amelioration of muscle function (in words) ([4]; compared to molsidomine, ISD alone, ISD and ibuprofen, or prednisolone)"
"CC[C@H](C)C(=O)O[C@H]1C[C@H](O)C=C2C=C[C@H](C)[C@H](CCC(O)C[C@H](O)CC(=O)OCCCCO[N+](=O)[O-])[C@H]21 (relative stereo) [(XXXVb), [1S-[1α(βS*,δS*),2α,6α,8β-(R*),8aα]]-1,2,6,7,8,8a-hexahydro-β,δ,6-trihydroxy-2-methyl-8-(2-methyl-1-oxobutoxy)-1-naphthaleneheptanoic acid 4-(nitrooxy)butyl ester]",35 ± 2.1,54.2 ± 8.05,"significantly effective in reducing the histological, functional and biochemical alterations",0.55 ± 0.03 km/24 h,0.58 ± 0.01 km/24 h,0.54 ± 0.03 km/24 h,0.65 ± 0.05 km/24 h,440.6 ± 33**^ U/ml,488.2 ± 96.5 U/ml,627.4 ± 69.3 U/ml,614.8 ± 37**^ U/ml,–,–,–,–,–,–,–
"CC(C(=O)OCCCCO[N+](=O)[O-])c1ccc(-c2ccccc2)c(F)c1 (centres unmarked) [(IIIb), 2-fluoro-alfa-methyl-4[1,1′-biphenyl]4-acetic acid 4-nitrooxybutyl ester]",–,–,"significantly effective in reducing the histological, functional and biochemical alterations",0.95 ± 0.1 km/24 h,–,–,–,662.6 ± 41 U/ml,824.0 ± 90.5 U/ml,648.2 ± 25.2 U/ml,482.3 ± 51.2 U/ml,84.2 ± 22.5,48.4 ± 2.3,–,–,–,–,–
"CC(=O)Oc1ccccc1C(=O)Oc1cccc(CO[N+](=O)[O-])c1 [(Ib), 2-(acetyloxy)benzoic acid 3-(nitrooxymethyl)phenyl ester]",124.1 ± 33,91.3 ± 34.5,"significantly effective in reducing the histological, functional and biochemical alterations",0.65 ± 0.07 km/24 h,0.42 ± 0.08 km/24 h,0.31 ± 0.1 km/24 h,–,665.6 ± 51 U/ml,944.0 ± 95.5 U/ml,444.2 ± 20.2 U/ml,494.6 ± 56.1 U/ml,–,–,–,–,–,–,–
"C[C@]12C=CC(=O)C=C1CC[C@@H]1[C@@H]2[C@@H](O)C[C@@]2(C)[C@H]1CC[C@]2(O)C(=O)CO [Prednisolone, prednisolone, reference compound]",197.1 ± 23,59.4 ± 7.00,–,0.55 ± 0.1 km/24 h,–,–,–,440.6 ± 33**^ U/ml,488.2 ± 96.5 U/ml,711.3 ± 69.3 U/ml,717.6 ± 31.1 U/ml,–,–,117%,100%,–,–,–
CCOC(=O)[N-]c1cn(N2CCOCC2)n[o+]1 [molsidomine],–,–,–,–,–,–,–,–,–,–,–,–,–,–,–,63%,–,–
COc1ccc2cc([C@H](C)C(=O)OCCCCO[N+](=O)[O-])ccc2c1 [naproxcinod],–,–,–,–,–,–,–,–,–,–,–,–,–,–,–,–,150%,superior amelioration of the muscle function
